Reference: the METLIN SMRT retention time set (Domingo-Almenara et al. 2019)

Assay: gradient 5% acetonitrile 3 min, to 50% in 2 min, to 85% in 15 min, held 3 min, 100 µL/min
Details: column: Zorbax Extend-C18 2.1 x 50 mm; eluents: water / acetonitrile, 0.1% formic acid
Method in brief: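 Using water and acetonitrile that each contained 0.1% formic acid, mixtures of ~100 pure standards were separated at 100 μL/min on a Zorbax Extend-C18 column (2.1 × 50 mm, 1.8 μm). The HPLC fed a quadrupole time-of-flight mass spectrometer working in positive and negative ionization mode, with dead and dwell volumes of 40 μL and 900 μL. Data were acquired over 3 months. Retention time was read from computationally picked adduct peaks after manual inspection of each.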

Compared with Cc1ccc(Oc2nccn3c(=O)n(CC(=O)Nc4ccc(C)c(Cl)c4)nc23)cc1, CCc1ccc(NC(=O)C2CCCN(c3ccc(=O)n(-c4ccc(C)c(Cl)c4)n3)C2)cc1 (centres undefined) is lower in RP-LC retention time: 1010 s for the first, 586 s for the second.

Going from CCN1C(=O)COc2ccc(-c3noc(-c4ccccc4C(F)(F)F)n3)cc21 to COc1ccccc1-c1noc(Cn2c(=O)n(-c3ccc(C)cc3)c(=O)c3sccc32)n1, the RP-LC retention time falls from 1140 s to 911 s.

Compared with CCNC(=O)C1CCCN(c2nc3ncn(CC(=O)Nc4cc(Cl)ccc4C)c(=O)c3s2)C1 (centres undefined), CCCNC(=O)C1CCCN(c2ccc(SCC(=O)NCc3ccc(C)cc3)nn2)C1 (centres undefined) is lower in RP-LC retention time: 741 s for the first, 656 s for the second.

Compared with O=C(CSc1ccc(N2CCCC(C(=O)NC3CC3)C2)nn1)Nc1ccc(Cl)cc1 (centres undefined), Cc1ccc(CNC(=O)C2CCCN(c3nc4ccsc4c(=O)n3Cc3ccc(F)cc3)C2)cc1 (centres undefined) is higher in RP-LC retention time: 682 s for the first, 1010 s for the second.

Going from Fc1ccc(CN2CCCCC2c2nc(-c3cnccn3)no2)cc1F (centres undefined) to O=C(NCc1cccnc1)C1CCCN(C(=O)c2cc3ccsc3n2Cc2cccc(Cl)c2)C1 (centres undefined), the RP-LC retention time falls from 849 s to 711 s.

Going from CCCCS(=O)(=O)c1cc2c(cc1NC(=O)c1ccc(Br)cc1)n(C)c(=O)n2C to Cn1c(=O)n(C)c2cc(S(=O)(=O)NCc3ccco3)ccc21, the RP-LC retention time falls from 1020 s to 636 s.

Compared with CCOc1ccc(-c2nc(COc3cc(C)c4c(C)nn(C)c4n3)c(C)o2)cc1OC, COc1ccc(OC)c2nc3c(C(=O)NCCN(C)C)cccc3nc12 is lower in RP-LC retention time: 1110 s for the first, 595 s for the second.

First: CC(C)C(=O)NC(Cc1ccccc1)c1nnc(N2CCSCC2)o1 (centres undefined)
Second: Cc1cc(=O)n(CC(=O)NC(C)CCc2ccccc2)c(N2CCc3ccccc3C2)n1 (centres undefined)
The RP-LC retention time of the first is lower: 738 s for the first, 872 s for the second.

Compared with O=C1NCCCn2cc(S(=O)(=O)NCc3cccc(C(F)(F)F)c3)cc21, CCn1nnc2c(N3CCN(S(=O)(=O)c4cccc(C(F)(F)F)c4)CC3)ncnc21 is higher in RP-LC retention time: 718 s for the first, 894 s for the second.

Compared with Cc1ccccc1OCc1nc(CCN(C)C(=O)c2ccc(Br)o2)no1, COc1ccc(S(=O)Cc2ccc(C(=O)NCCCN3CCc4ccccc4C3)o2)cc1 (centres undefined) is lower in RP-LC retention time: 951 s for the first, 619 s for the second.

First: COc1ccc(CNC(=O)C2CCN(c3cnc4nccnc4c3)CC2)cc1OC
Second: COc1ccc(CNC(=O)Cn2ccc3ccc(N4CCOCC4)nc32)cc1
The RP-LC retention time of the first is lower: 633 s for the first, 831 s for the second.

Going from Cc1ccc2nc(C(=O)NCc3ccc(F)cc3F)cn2c1 to Cc1ccc2c(c1)C(=O)NC1(CCN(C(=O)NCc3ccc(F)cc3)CC1)N2C, the RP-LC retention time rises from 668 s to 761 s.

Going from O=C1NC2(CCN(C(=O)Nc3ccc4c(c3)OCO4)CC2)Nc2c(Cl)cccc21 to CCn1cc(C(=O)Nc2cccc(F)c2)c(S(=O)(=O)N2CCSCC2)n1, the RP-LC retention time rises from 682 s to 845 s.

Compared with O=C(Nc1ccc(F)c(Cl)c1)c1cn2c(n1)CSCC2, Cc1oc(C2CCN(S(=O)(=O)c3cccc(F)c3)CC2)nc1C(=O)N1CCCC1 is higher in RP-LC retention time: 807 s for the first, 913 s for the second.

Compared with COCCCNC(=O)C1CN(C(=O)c2ccccc2)CC12CCCCC2 (centres undefined), COC(=O)N1CCc2ccccc2C1C(=O)NCCCn1ccnc1 (centres undefined) is lower in RP-LC retention time: 571 s for the first, 556 s for the second.

First: CN(CCNC(=O)c1cc(S(=O)(=O)N2CCCCC2)ccc1Cl)Cc1ccccc1
Second: Cc1noc(C)c1-c1ccc(S(=O)(=O)N2CC=C(c3ccccc3)CC2)cc1
The RP-LC retention time of the first is lower: 711 s for the first, 1110 s for the second.

Compared with CN(CC1CCOC1)C(=O)Nc1ccccc1Cl (centres undefined), O=C(O)C1CCN(C(=O)CCc2c[nH]c3ccccc23)CC1 is lower in RP-LC retention time: 722 s for the first, 662 s for the second.

Compared with CCCCN1C(=O)C2(NCCc3c2[nH]c2ccc(OC)cc32)c2cc(Br)ccc21 (centres undefined), COc1cccc(-c2nc(NCC3CCCO3)ncc2C(=O)O)c1 (centres undefined) is lower in RP-LC retention time: 763 s for the first, 712 s for the second.

Compared with Cc1ccc(C)c(N2CCN(C(=O)Cn3nc(C(=O)N4CCCC4)c4ccccc43)CC2)c1, CC1CN(CC(=O)N2CCN(c3ccccn3)CC2)c2ccccc2S1 (centres undefined) is lower in RP-LC retention time: 1040 s for the first, 683 s for the second.

Compared with CCN(CC)CCNC(=O)c1cc(Br)c(N)cc1OC, CC(C)n1c(CCNC(=O)c2cc(F)cc(F)c2)nc2cccnc21 is higher in RP-LC retention time: 645 s for the first, 694 s for the second.

Going from O=C(Cn1cccc1-c1nnc(C2CC2)o1)NCCc1ccc(Cl)cc1 to Cc1cc(S(=O)(=O)[C@H]2CS(=O)(=O)C[C@@H]2N2CCN(c3ccccc3F)CC2)ccc1F, the RP-LC retention time rises from 862 s to 1040 s.

First: C=CCN1C(=O)COc2ccc(-c3csc(NC(=O)C4CCCCC4)n3)cc21
Second: c1cn(-c2cc(NC3CCCC3)ncn2)cn1
The RP-LC retention time of the first is higher: 1060 s for the first, 613 s for the second.
